One assay concerns A549 cells. The experiment in a line: Mammalian cell cytotoxicity assay (PrestoBlue). The format is cell-based, human. Conditions: Homo sapiens, A549, 72 h, read-out: Mammalian cell lines IC50. The method, then: (§1) A549 and HepG2 cells were seeded at 1500 and 2500 cells per well, respectively, in 384-well microplates and incubated at 37 °C in the presence of 5% CO2. The next day, cells were treated with compounds then incubated for an additional 72 h. To assess the cytotoxic effect of the compounds PrestoBlue cell viability reagent (Life Technologies, Carlsbad, CA, USA) was used. After the 72 h incubation with compounds, the 384-well assay plates were incubated with this viability indicator dye for 2 h (A549) and 4 h (HepG2) before fluorescence reading at Ex/Em = 560 nm/590 nm on the Tecan Infinite M1000 Pro reader. Puromycin (data not shown) was used as the positive control against both cell lines. All tests were executed in triplicate on two separate experiments.

In another assay the test system is HepG2 cells. The experiment in a line: Mammalian cell cytotoxicity assay (PrestoBlue). The format is cell-based, human. To be noted: Homo sapiens, HepG2, 72 h, read-out: Mammalian cell lines IC50. The method, then:
as §1

The target of assay [1] is T1, S. aureus sortase A (Staphylococcus aureus, UniProt Q2FV99).
T1 construct: purchased AnaSpec AS-72229
T1 sequence (Q2FV99 whole entry): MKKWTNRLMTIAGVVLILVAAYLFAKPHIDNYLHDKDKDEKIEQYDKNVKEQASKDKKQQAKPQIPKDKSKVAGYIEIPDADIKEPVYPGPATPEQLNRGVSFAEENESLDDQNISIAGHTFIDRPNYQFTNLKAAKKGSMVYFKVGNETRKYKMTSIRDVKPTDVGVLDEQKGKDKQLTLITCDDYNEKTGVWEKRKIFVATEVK
Nature of the assay: SrtA enzyme inhibition FRET assay, 5-FAM/QXL 520 substrate. The assay is classed as biochemical. Here is the method: (§2) The enzymatic reactions were carried out in black, low-binding polystyrene 384 well plates (Greiner Bio-One). […] SrtA was pre-incubated in the reaction buffer with compounds for 1 h at room temperature prior to the addition of the FRET substrate. Assays were performed in 50 µL reactions with 50 ng of S. aureus sortase A and 25 µM of DABCYL-LPETG-EDANS substrate or 1 µM of 5-FAM/QXL^TM 520 substrate. The inhibitory activity of the compounds was determined by monitoring the rise in fluorescence intensity over 24 h at Ex/Em = 336 nm/490 nm for the DABCYL/EDANS substrate and Ex/Em = 490 nm/520 nm for the 5-FAM/QXL 520 substrate on a Tecan Infinite M1000 Pro reader.
(§3) Raw fluorescence data were corrected for autofluorescence before computing percentage inhibition values. These percentage inhibition values were plotted against compound concentration using GraphPad Prism version 8.0 by nonlinear regression analysis using least squares fit method for IC50 determination. Testing was performed twice to ensure reproducibility of results.

For a further assay, the system named is S. aureus ATCC 25923. Nature of the assay: S. aureus whole cell assay (MIC, microbroth dilution). Conditions: Staphylococcus aureus, ATCC25923, 24 h. The assay is classed as cell-based, Staphylococcus aureus. The method, then:
(§4) Minimum inhibitory concentration (MIC) tests were performed according to procedures of the Clinical Laboratory Standards Institute (CLSI) with minor changes using the microbroth dilution technique in a 384-well setup. Inoculum of each S. aureus strain was prepared by suspending segregated colonies in sterile saline to a 0.5 McFarland standard. An inoculum of 2–8 × 10^5 CFU/mL was incubated with the compounds for 24 h at 37 °C. Gentamicin (data not shown) was incubated in the same manner as the test compounds and served as a positive control. The effect of the compounds on bacterial growth was calculated by quantifying the optical density at 600 nm on a microplate reader (Tecan, Infinite M1000, Salzburg, Austria). Dilutions of the inoculum were cultivated on agar to verify the validity of the inoculum seeding density and absence of contamination. All tests were executed in triplicate during two separate experiments.

The subject of the next assay is S. aureus Newman. The assay is described as above. The assay is classed as cell-based, Staphylococcus aureus. Conditions: for MIC: Staphylococcus aureus, NEWMAN, 24 h; for growth inhibition of S. aureus: at 200 µM, strain not given. The method, then: as §4
Assay [2] addresses T1, S. aureus sortase A. Nature of the assay: SrtA enzyme inhibition FRET assay, DABCYL-LPETG-EDANS substrate. The assay is classed as biochemical. Here is the method:
as §2, §3

Assay [3] deals with adherence of S. aureus Newman to fibrinogen. The experiment in a line: Fibrinogen binding assay. To be noted: for IC50: read-out: Fibrinogen adherence Inhibition IC50; for concentration giving ≥90% prevention of S. aureus Newman adherence to fibrinogen: compared to untreated wildtype strain. The format is cell-based, Staphylococcus aureus. Here is the method:
Fibrinogen binding assay was completed as described but with slight revision. A flat-bottom 96-well plate was covered with fibrinogen protein by adding 50 µL of 20 µg/mL of fibrinogen protein from bovine plasma diluted in saline and incubated at 4 °C for 24 h. The coated plates were gently rinsed twice with PBS and blocked for 60 min with 4% bovine serum albumin (BSA). The plates were then washed 3 times with PBS. For this assay, S. aureus Newman strain was cultivated in TSB at 37 °C to exponential phase (OD600 = 0.5) and then the bacterial culture was incubated with various concentrations of test compound or control for 2.5 h. Then the cells were pelleted by centrifugation at 10,000× g for 10 min, the supernatants were removed and the cell pellets stored at −20 °C. The following day, cell pellets were suspended in PBS and dispersed in 100 μL aliquots to distinct wells of fibrinogen-coated 96-well plates. After 2 h of growth at 37 °C, the bacterial supernatant was discarded and the wells were rinsed gently with 150 µl PBS. Then the bacterial cells were fixed with 2% (v/v) glutaraldehyde and incubated for 30 min at 25 °C. After a wash with PBS, bound cells were stained with 0.1% crystal violet dye for 15 min. Plates were rinsed twice again with PBS, enclosed with aluminum foil, then stored at room temperature to dry overnight. On the next day absorbance was measured at 570 nm. The results were described as the percent of adhesion inhibition normalized to the wild type control. Two independent experiments were performed in triplicate to ensure reproducibility.

For assay [4], the system named is S. aureus ATCC 33591 (MRSA). The experiment in a line: S. aureus whole cell assay (MIC, microbroth dilution). To be noted: 24 h. The assay is classed as cell-based, Staphylococcus aureus. Here is the method:
as §4
For orientation: In broth dilution the organism is exposed to a series of concentrations in liquid medium.

Assay [5] concerns S. aureus Newman biofilm formation. The experiment in a line: Biofilm inhibitory assay (crystal violet), biofilm formation. The assay is classed as cell-based, Staphylococcus aureus. Conditions: CV assay; for IC50: biofilm formation, read-out: Biofilm Inhibition IC50. Here is the method: (§5) The effectiveness of SrtA inhibitors in reducing biofilm formation and growth was assessed using the crystal violet (CV) biofilm assay with the following modifications. TSB with 2% glucose (TSB without glucose for E. coli) was inoculated with 10^5 CFU/mL of S. aureus and E. coli overnight cultures. A total of 90µl of this cell suspension was then dispensed into 96-well microtiter plates containing 10 µL of different concentrations of the SrtA inhibitors. After 24 h growth at 37 °C the plates were washed with PBS to remove unbound cells and heat fixed at 60 °C for 30 min. Next, the wells were stained with 0.1% crystal violet solution for 15 min at room temperature. At the completion of the incubation plates were washed 3 times with PBS and dried. Then the crystal violet dye from the biofilm was solubilized with 200 µL of DMSO. A total of 100 µL of this solution was then moved to a new microtiter plate for absorbance measurement at 595 nm. For pre-formed biofilm assay, the plates were prepared and incubated as mentioned earlier, without SrtA inhibitors. After 24 h incubation, the culture supernatant was removed gently and biofilm carefully washed with sterile PBS. Next, 10 µL of different concentrations of SrtA inhibitors with 90 µL of TSB with 2% glucose were added carefully into the wells and incubated at 37 °C for 24 h. The amount of crystal violet staining of biofilm was measured as described above. The results were reported as percent inhibition normalized to the wild type control. Two independent experiments were performed in triplicate to ensure reproducibility.

The test system of assay [6] is S. aureus ATCC 33591 (MRSA) biofilm formation. The description is as above. The assay is classed as cell-based, Staphylococcus aureus. To be noted: S. aureus ATCC 33591 (MRSA), biofilm formation, read-out: Biofilm Inhibition IC50. The method, then: as §5
The test system of assay [7] is S. aureus Newman pre-formed biofilms. Nature of the assay: Biofilm inhibitory assay (crystal violet), pre-formed biofilms. The format is cell-based, Staphylococcus aureus. Conditions: pre-formed biofilms, CV assay, read-out: Biofilm Inhibition IC50. Here is the method: as §5
[8] abbreviates: Sortase A IC50, 5-FAM/QXL substrate, 10 min.
[9] abbreviates: Sortase A IC50, DABCYL-LPETG-EDANS substrate, 4 h.

Values joined by “and” are separate entries in the source; they are usually repeats but may differ in a detail not shown here. Equal values may be shown once. Where a name gives a salt, the structure may show the parent alone. Read-outs that look alike come from different tables or passages of the source. Bounds are passed on as bounds.

Usually IC50 stands for the midpoint of a concentration-inhibition curve. In general, MIC refers to the lowest concentration found to suppress growth. High values mean weaker potency, low ones greater potency. As for `O=C(/C=C/c1ccc(O)c(O)c1)O[C@@H]1C[C@](O)(C(=O)O)C[C@@H](O)[C@H]1O` [Chlorogenic acid, reference compound], the concentration for half-maximal inhibition (IC50) is > 200 µM in the assay with A549 cells; > 200 µM with HepG2 cells; 144 ± 16 µM against S. aureus sortase A [1] (setting [8]); 103 ± 31 µM against S. aureus sortase A [1] (Sortase A IC50, 5-FAM/QXL substrate, after 24 h); 88 ± 5.6 µM against S. aureus sortase A [2] (setting [9]). Moreover, the MIC with S. aureus ATCC 25923 and in the assay on S. aureus Newman was > 200 µM each time. Also, in the assay with S. aureus Newman, the “growth inhibition of S. aureus” value is “did not inhibit the growth”.
In the case of `COc1ccc(C[C@H](N)C(=O)N[C@H]2[C@@H](O)[C@H](n3cnc4c(N(C)C)ncnc43)O[C@@H]2CO)cc1` [Compound N51, Puromycin hydrochloride], the concentration for half-maximal inhibition (IC50) on S. aureus sortase A [1] and at S. aureus sortase A [2] was > 200 µM in each case.
`CC(C)(O)[C@H]1O[C@H]2CC[C@@]3(C)[C@@](O)(CC[C@H]4Cc5c([nH]c6ccccc56)[C@@]43C)C2=CC1=O` [Compound N563, Paxilline]: the 50% inhibitory concentration (IC50) at S. aureus sortase A [1] and at S. aureus sortase A [2] was > 200 µM each time.
As to `CC(C)=CCc1c(O)c(CC=C(C)C)c2occ(-c3ccc(O)cc3)c(=O)c2c1O` [Compound N942, 6,8-diprenylgenistein], the IC50 against S. aureus sortase A [1] and against S. aureus sortase A [2] was > 200 µM in each case.
Take `CC(C)=CCc1c2c(c(O)c3c(=O)c(-c4ccc(O)c(O)c4)coc13)C=CC(C)(C)O2` [Compound N1048, Auriculasin]: the IC50 at S. aureus sortase A [1] and against S. aureus sortase A [2] was > 200 µM in each case.
Turning to `CC(/C=C/[C@@]1(C)[C@H](C)CCC(=O)[C@@H]1C)=C\Cc1c(O)c(Cl)c(C)c(C=O)c1O` [Compound N1321, Ascochlorin], the half-maximal inhibitory concentration (IC50) on S. aureus sortase A [1] (setting [8]) and against S. aureus sortase A [2] (setting [9]) was > 200 µM in each case.
For `COc1c(C)c2c(c(O)c1C/C=C(\C)CCC(=O)OC1c3cc(O)cc(O)c3C(=O)OC1(C)O)C(=O)OC2` (stereo not drawn) [Compound N1871, Antibiotic F 13459], the IC50 against S. aureus sortase A [1] and against S. aureus sortase A [2] was > 200 µM in each case.
With `COc1ccc(CC(N)C(=O)NC2C(C(=O)O)OC(n3cnc4c(N)ncnc43)C2O)cc1` (stereo not drawn) [Compound N2238, Chryscandin], the IC50 against S. aureus sortase A [1] and at S. aureus sortase A [2] was > 200 µM in each case.
In the case of `CC1=CC2c3c(cc4oc5cc(C)cc(O)c5c4c3C)OC3(O)C(=O)c4oc5cc(C)cc(O)c5c4C(C)(C1)C23` (stereo not drawn) [Compound N2450, Asticolorin B], the IC50 is > 200 µM on S. aureus sortase A [1] (read-out: Sortase A IC50, 5-FAM/QXL substrate, 10 min) and > 200 µM at S. aureus sortase A [2] (read-out: Sortase A IC50, DABCYL-LPETG-EDANS substrate, 4 h).
For the compound `COc1cc(/C=C/C(=O)CC(=O)/C=C/c2ccc(O)c(OC)c2)ccc1O` [Curcumin, reference compound], the IC50 in assay [3] (Staphylococcus aureus, NEWMAN) was 46.5 ± 6.2 µM; with A549 cells, 48.2 ± 12.7 µM; with HepG2 cells, 39.6 ± 5.3 µM; in assay [5] (Staphylococcus aureus, NEWMAN), 51.2 ± 4.4 µM; in [5] it was 51 µM; in assay [6] (Staphylococcus aureus), > 150 µM. Also, in assay [3], the “concentration giving ≥90% prevention of S. aureus Newman adherence to fibrinogen” value was > 170 µM. For the same compound, the MIC (in the assay with S. aureus ATCC 25923; in [4] (Staphylococcus aureus); in the assay on S. aureus Newman) was > 200 µM each time. Moreover, the “growth inhibition of S. aureus” value with S. aureus Newman is on record as “did not inhibit the growth”. Also, the “concentration giving >90% inhibition of biofilm formation” value in assay [5] was found to be 174 µM.
Turning to `O=C(O)c1cc[c]([Hg][OH])cc1` [p-HMB, p-hydroxymercuribenzoic acid, reference compound], the 50% inhibitory concentration (IC50) was 37.4 ± 5.3 µM in [3] (S. aureus Newman); 0.18 ± 0.08 µM on S. aureus sortase A [1] (5-FAM/QXL substrate, 10 min, read-out: Sortase A IC50); 0.2 ± 0.07 µM on S. aureus sortase A [2] (DABCYL-LPETG-EDANS substrate, 4 h, read-out: Sortase A IC50); 11.9 µM and 12 µM in [5]; > 150 µM in assay [6]; 43 ± 3.6 µM in [7]. The “concentration giving ≥90% prevention of S. aureus Newman adherence to fibrinogen” value in [3] is > 170 µM. In assay [4], the “S. aureus MIC” value was 6.7 ± 1.5 µM. Further, in assay [5], the “concentration giving >90% inhibition of biofilm formation” value stood at 22 µM.
